Reference: ChEMBL document CHEMBL5108027, “An unanticipated discovery of novel naphthalimidopropanediols as potential broad-spectrum antibacterial members” (Eur J Med Chem, 2022)
Values after ≈ are worked out from the molar mass of the structure shown.

What was measured:
Assay type in all cases: functional
Enterococcus faecalis = test: Antibacterial activity against Enterococcus faecalis measured by Muller-Hinton broth based microdilution assay
Pseudomonas aeruginosa [1] = test: Antibacterial activity against Pseudomonas aeruginosa ATCC 27853 measured by Muller-Hinton broth based microdilution assay
Staphylococcus aureus [2] = test: Antibacterial activity against methicillin-resistant Staphylococcus aureus N315 measured by Muller-Hinton broth based microdilution assay
Pseudomonas aeruginosa [3] = test: Antibacterial activity against Pseudomonas aeruginosa measured by Muller-Hinton broth based microdilution assay
Staphylococcus aureus [4] = test: Antibacterial activity against Staphylococcus aureus measured by Muller-Hinton broth based microdilution assay
Staphylococcus aureus [5] = test: Antibacterial activity against Staphylococcus aureus ATCC 29213 measured by Muller-Hinton broth based microdilution assay
Klebsiella pneumoniae = test: Antibacterial activity against Klebsiella pneumoniae measured by Muller-Hinton broth based microdilution assay
Escherichia coli [6] = test: Antibacterial activity against Escherichia coli ATCC 25922 measured by Muller-Hinton broth based microdilution assay
Staphylococcus aureus [7] = test: Antibacterial activity against Staphylococcus aureus ATCC 25923 measured by Muller-Hinton broth based microdilution assay
Acinetobacter baumannii = test: Antibacterial activity against Acinetobacter baumannii measured by Muller-Hinton broth based microdilution assay
Escherichia coli [8] = test: Antibacterial activity against Escherichia coli measured by Muller-Hinton broth based microdilution assay

Compound: CCCCc1nc(Cl)c(/C=N/Nc2ccc3c4c(cccc24)C(=O)N(C(CO)CO)C3=O)[nH]1
- MIC (Enterococcus faecalis): 32 µg/mL (≈ 68.1 µM)
- MIC (Pseudomonas aeruginosa [1]): 8 µg/mL (≈ 17 µM)
- MIC (Staphylococcus aureus [2]): 64 µg/mL (≈ 136 µM)
- MIC (Pseudomonas aeruginosa [3]): 64 µg/mL (≈ 136 µM)
- MIC (Staphylococcus aureus [4]): 32 µg/mL (≈ 68.1 µM)
- MIC (Staphylococcus aureus [5]): 32 µg/mL (≈ 68.1 µM)
- MIC (Klebsiella pneumoniae): 8 µg/mL (≈ 17 µM)
- MIC (Escherichia coli [6]): 32 µg/mL (≈ 68.1 µM)
- MIC (Staphylococcus aureus [7]): 64 µg/mL (≈ 136 µM)
- MIC (Acinetobacter baumannii): 64 µg/mL (≈ 136 µM)
- MIC (Escherichia coli [8]): 16 µg/mL (≈ 34 µM)

Compound: O=C1c2cccc3c(N/N=C/c4ccc(F)cc4)ccc(c23)C(=O)N1C(CO)CO
- MIC (Enterococcus faecalis): 64 µg/mL (≈ 157 µM)
- MIC (Pseudomonas aeruginosa [1]): 32 µg/mL (≈ 78.5 µM)
- MIC (Staphylococcus aureus [2]): 64 µg/mL (≈ 157 µM)
- MIC (Pseudomonas aeruginosa [3]): 8 µg/mL (≈ 19.6 µM)
- MIC (Staphylococcus aureus [4]): 64 µg/mL (≈ 157 µM)
- MIC (Staphylococcus aureus [5]): 4 µg/mL (≈ 9.82 µM)
- MIC (Klebsiella pneumoniae): 32 µg/mL (≈ 78.5 µM)
- MIC (Escherichia coli [6]): 64 µg/mL (≈ 157 µM)
- MIC (Staphylococcus aureus [7]): 32 µg/mL (≈ 78.5 µM)
- MIC (Acinetobacter baumannii): 32 µg/mL (≈ 78.5 µM)
- MIC (Escherichia coli [8]): 64 µg/mL (≈ 157 µM)

Compound: O=C1c2cccc3c(N/N=C/c4cc(=O)oc5cc(O)ccc45)ccc(c23)C(=O)N1C(CO)CO
- MIC (Enterococcus faecalis): 128 µg/mL (≈ 270 µM)
- MIC (Pseudomonas aeruginosa [1]): 4 µg/mL (≈ 8.45 µM)
- MIC (Staphylococcus aureus [2]): 32 µg/mL (≈ 67.6 µM)
- MIC (Pseudomonas aeruginosa [3]): 64 µg/mL (≈ 135 µM)
- MIC (Staphylococcus aureus [4]): 4 µg/mL (≈ 8.45 µM)
- MIC (Staphylococcus aureus [5]): 8 µg/mL (≈ 16.9 µM)
- MIC (Klebsiella pneumoniae): 4 µg/mL (≈ 8.45 µM)
- MIC (Escherichia coli [6]): 32 µg/mL (≈ 67.6 µM)
- MIC (Staphylococcus aureus [7]): 8 µg/mL (≈ 16.9 µM)
- MIC (Acinetobacter baumannii): 64 µg/mL (≈ 135 µM)
- MIC (Escherichia coli [8]): 64 µg/mL (≈ 135 µM)

Compound: CCCCCCCCCCCCCCCCn1cc(/C=N/Nc2ccc3c4c(cccc24)C(=O)N(C(CO)CO)C3=O)c2ccccc21
- MIC (Enterococcus faecalis): 64 µg/mL (≈ 98 µM)
- MIC (Pseudomonas aeruginosa [1]): 32 µg/mL (≈ 49 µM)
- MIC (Staphylococcus aureus [2]): 64 µg/mL (≈ 98 µM)
- MIC (Pseudomonas aeruginosa [3]): 64 µg/mL (≈ 98 µM)
- MIC (Staphylococcus aureus [4]): 8 µg/mL (≈ 12.3 µM)
- MIC (Staphylococcus aureus [5]): 64 µg/mL (≈ 98 µM)
- MIC (Klebsiella pneumoniae): 32 µg/mL (≈ 49 µM)
- MIC (Escherichia coli [6]): 64 µg/mL (≈ 98 µM)
- MIC (Staphylococcus aureus [7]): 32 µg/mL (≈ 49 µM)
- MIC (Acinetobacter baumannii): 64 µg/mL (≈ 98 µM)
- MIC (Escherichia coli [8]): 32 µg/mL (≈ 49 µM)

Compound: C#CCn1cc(/C=N/Nc2ccc3c4c(cccc24)C(=O)N(C(CO)CO)C3=O)c2ccccc21
- MIC (Enterococcus faecalis): 16 µg/mL (≈ 34.3 µM)
- MIC (Pseudomonas aeruginosa [1]): 4 µg/mL (≈ 8.57 µM)
- MIC (Staphylococcus aureus [2]): 8 µg/mL (≈ 17.1 µM)
- MIC (Pseudomonas aeruginosa [3]): 32 µg/mL (≈ 68.6 µM)
- MIC (Staphylococcus aureus [4]): 0.5 µg/mL (≈ 1.07 µM)
- MIC (Staphylococcus aureus [5]): 1 µg/mL (≈ 2.14 µM)
- MIC (Klebsiella pneumoniae): 4 µg/mL (≈ 8.57 µM)
- MIC (Escherichia coli [6]): 16 µg/mL (≈ 34.3 µM)
- MIC (Staphylococcus aureus [7]): 8 µg/mL (≈ 17.1 µM)
- MIC (Acinetobacter baumannii): 16 µg/mL (≈ 34.3 µM)
- MIC (Escherichia coli [8]): 64 µg/mL (≈ 137 µM)

Compound: CCCCCCCCCCn1cc(/C=N/Nc2ccc3c4c(cccc24)C(=O)N(C(CO)CO)C3=O)c2ccccc21
- MIC (Enterococcus faecalis): 64 µg/mL (≈ 113 µM)
- MIC (Pseudomonas aeruginosa [1]): 32 µg/mL (≈ 56.3 µM)
- MIC (Staphylococcus aureus [2]): 64 µg/mL (≈ 113 µM)
- MIC (Pseudomonas aeruginosa [3]): 128 µg/mL (≈ 225 µM)
- MIC (Staphylococcus aureus [4]): 16 µg/mL (≈ 28.1 µM)
- MIC (Staphylococcus aureus [5]): 32 µg/mL (≈ 56.3 µM)
- MIC (Klebsiella pneumoniae): 16 µg/mL (≈ 28.1 µM)
- MIC (Escherichia coli [6]): 32 µg/mL (≈ 56.3 µM)
- MIC (Staphylococcus aureus [7]): 16 µg/mL (≈ 28.1 µM)
- MIC (Acinetobacter baumannii): 64 µg/mL (≈ 113 µM)
- MIC (Escherichia coli [8]): 32 µg/mL (≈ 56.3 µM)

Compound: O=C1c2cccc3c(N/N=C/c4ccc(O)c(Cl)c4)ccc(c23)C(=O)N1C(CO)CO
- MIC (Enterococcus faecalis): 64 µg/mL (≈ 146 µM)
- MIC (Pseudomonas aeruginosa [1]): 32 µg/mL (≈ 72.8 µM)
- MIC (Staphylococcus aureus [2]): 64 µg/mL (≈ 146 µM)
- MIC (Pseudomonas aeruginosa [3]): 8 µg/mL (≈ 18.2 µM)
- MIC (Staphylococcus aureus [4]): 64 µg/mL (≈ 146 µM)
- MIC (Staphylococcus aureus [5]): 64 µg/mL (≈ 146 µM)
- MIC (Klebsiella pneumoniae): 64 µg/mL (≈ 146 µM)
- MIC (Escherichia coli [6]): 64 µg/mL (≈ 146 µM)
- MIC (Staphylococcus aureus [7]): 32 µg/mL (≈ 72.8 µM)
- MIC (Acinetobacter baumannii): 64 µg/mL (≈ 146 µM)
- MIC (Escherichia coli [8]): 16 µg/mL (≈ 36.4 µM)

Compound: O=C1c2cccc3c(N/N=C/c4ccc5ccccc5n4)ccc(c23)C(=O)N1C(CO)CO
- MIC (Enterococcus faecalis): 64 µg/mL (≈ 145 µM)
- MIC (Pseudomonas aeruginosa [1]): 8 µg/mL (≈ 18.2 µM)
- MIC (Staphylococcus aureus [2]): 2 µg/mL (≈ 4.54 µM)
- MIC (Pseudomonas aeruginosa [3]): 2 µg/mL (≈ 4.54 µM)
- MIC (Staphylococcus aureus [4]): 4 µg/mL (≈ 9.08 µM)
- MIC (Staphylococcus aureus [5]): 128 µg/mL (≈ 291 µM)
- MIC (Klebsiella pneumoniae): 32 µg/mL (≈ 72.7 µM)
- MIC (Escherichia coli [6]): 64 µg/mL (≈ 145 µM)
- MIC (Staphylococcus aureus [7]): 64 µg/mL (≈ 145 µM)
- MIC (Acinetobacter baumannii): 64 µg/mL (≈ 145 µM)
- MIC (Escherichia coli [8]): 4 µg/mL (≈ 9.08 µM)

Compound: O=C1c2cccc3c(N/N=C/c4ccc(OC(F)(F)F)cc4)ccc(c23)C(=O)N1C(CO)CO
- MIC (Enterococcus faecalis): 2 µg/mL (≈ 4.22 µM)
- MIC (Pseudomonas aeruginosa [1]): 8 µg/mL (≈ 16.9 µM)
- MIC (Staphylococcus aureus [2]): 32 µg/mL (≈ 67.6 µM)
- MIC (Pseudomonas aeruginosa [3]): 8 µg/mL (≈ 16.9 µM)
- MIC (Staphylococcus aureus [4]): 4 µg/mL (≈ 8.45 µM)
- MIC (Staphylococcus aureus [5]): 4 µg/mL (≈ 8.45 µM)
- MIC (Klebsiella pneumoniae): 2 µg/mL (≈ 4.22 µM)
- MIC (Escherichia coli [6]): 32 µg/mL (≈ 67.6 µM)
- MIC (Staphylococcus aureus [7]): 32 µg/mL (≈ 67.6 µM)
- MIC (Acinetobacter baumannii): 16 µg/mL (≈ 33.8 µM)
- MIC (Escherichia coli [8]): 32 µg/mL (≈ 67.6 µM)

Compound: Cc1ccc(/C=N/Nc2ccc3c4c(cccc24)C(=O)N(C(CO)CO)C3=O)cc1
- MIC (Enterococcus faecalis): 64 µg/mL (≈ 159 µM)
- MIC (Pseudomonas aeruginosa [1]): 1 µg/mL (≈ 2.48 µM)
- MIC (Staphylococcus aureus [2]): 16 µg/mL (≈ 39.7 µM)
- MIC (Pseudomonas aeruginosa [3]): 64 µg/mL (≈ 159 µM)
- MIC (Staphylococcus aureus [4]): 0.5 µg/mL (≈ 1.24 µM)
- MIC (Staphylococcus aureus [5]): 4 µg/mL (≈ 9.91 µM)
- MIC (Klebsiella pneumoniae): 8 µg/mL (≈ 19.8 µM)
- MIC (Escherichia coli [6]): 32 µg/mL (≈ 79.3 µM)
- MIC (Staphylococcus aureus [7]): 32 µg/mL (≈ 79.3 µM)
- MIC (Acinetobacter baumannii): 64 µg/mL (≈ 159 µM)
- MIC (Escherichia coli [8]): 64 µg/mL (≈ 159 µM)

Compound: C=CCn1cc(/C=N/Nc2ccc3c4c(cccc24)C(=O)N(C(CO)CO)C3=O)c2ccccc21
- MIC (Enterococcus faecalis): 64 µg/mL (≈ 137 µM)
- MIC (Pseudomonas aeruginosa [1]): 64 µg/mL (≈ 137 µM)
- MIC (Staphylococcus aureus [2]): 64 µg/mL (≈ 137 µM)
- MIC (Pseudomonas aeruginosa [3]): 128 µg/mL (≈ 273 µM)
- MIC (Staphylococcus aureus [4]): 64 µg/mL (≈ 137 µM)
- MIC (Staphylococcus aureus [5]): 32 µg/mL (≈ 68.3 µM)
- MIC (Klebsiella pneumoniae): 4 µg/mL (≈ 8.54 µM)
- MIC (Escherichia coli [6]): 16 µg/mL (≈ 34.2 µM)
- MIC (Staphylococcus aureus [7]): 16 µg/mL (≈ 34.2 µM)
- MIC (Acinetobacter baumannii): 64 µg/mL (≈ 137 µM)
- MIC (Escherichia coli [8]): 32 µg/mL (≈ 68.3 µM)
